Among the data in ChEMBL document CHEMBL1127634, “Calculation of relative differences in the binding free energies of HIV1 protease inhibitors: a thermodynamic cycle perturbation approach” (J Med Chem, 1994) are Ki values, retold here.

This assay has as its target Human immunodeficiency virus type 1 protease (Human immunodeficiency virus 1, UniProt Q72874). The assay is described as follows: Binding affinity against HIV -1 protease.
In the case of `O=C(CC[C@H](O)[C@H](Cc1ccccc1)NC(=O)CC(NC(=O)c1ccc2ccccc2n1)C(=O)O)NC(c1ccccc1)c1cc2ccccc2[nH]1` (stereo not given in full), the affinity, expressed as Ki, was 200 nM.
With `O=C(CC[C@H](O)[C@H](Cc1ccccc1)NC(=O)CC(NC(=O)c1ccc2ccccc2n1)C(=O)O)NC(c1cccc(C(F)(F)F)c1)c1cc2ccccc2[nH]1` (stereo not given in full), the Ki (usually a measure of affinity in units of concentration, obtained from inhibition or displacement) worked out at 33 nM.
As to `Cc1cccc(C(NC(=O)CC[C@H](O)[C@H](Cc2ccccc2)NC(=O)CC(NC(=O)c2ccc3ccccc3n2)C(=O)O)c2cc3ccccc3[nH]2)c1` (stereo not given in full), the inhibition constant (Ki) was determined as 39 nM.
In the case of `C[C@H](N)C(=O)N[C@@H](C)C(=O)N[C@@H](Cc1ccccc1)[C@@H](O)CCC(=O)NC(c1ccccc1)c1cc2ccccc2[nH]1` (stereo not given in full), the Ki was 43 nM.
Compound `C[C@H](N)C(=O)N[C@@H](C)C(=O)N[C@@H](Cc1ccccc1)[C@@H](O)CCC(=O)NC(c1ccccc1)c1nc2ccccc2[nH]1` (stereo not given in full) had an inhibitory constant (Ki) of 5370 nM.
